We go through 30 compounds from PMC7931047, “Discovery of Substituted (2-Aminooxazol-4-yl)Isoxazole-3-carboxylic Acids as Inhibitors of Bacterial Serine Acetyltransferase in the Quest for Novel Potential Antibacterial Adjuvants” (Pharmaceuticals, 2021).

The structures appear in SMILES notation. “Also recorded” adds a separate entry of the source. Like-named read-outs stand apart in the source and are kept apart here. Where only a bound is given, the exact number is not on record here.

For orientation: inhibition means how much of the control response was suppressed. Read a high inhibition as a response far below the control. By IC50 is commonly meant the midpoint of a concentration-inhibition curve. As usually defined, the Ki is the dissociation constant of the complex between target and ligand, obtained from inhibition or displacement. Higher therefore signals weaker binding. What is called MIC is the lowest concentration found to suppress growth. Lower therefore signals inhibition by little substance.

Data set [1] addresses T1, SAT from Salmonella enterica serovar Typhimurium (Salmonella typhimurium, UniProt P29847).
T1 construct: trxA (thioredoxin) fusion; made in house
The data set is described as follows: StSAT enzyme activity assay (spectrophotometric indirect assay with Ellman's reagent). Format: biochemical. The note with it: for inhibition at 1000 µM: compound at fixed 1 mM, both substrates equal to Km, 5% DMSO. Here is the method: Since the primary structure of SAT is highly conserved among bacteria, [38] the virtual screening of our in-house library was performed using the available crystal structures of EcSAT (pdb code: 1T3D) and HiSAT (pdb code: 1SSM), setting the experimental parameters as previously reported by us. After this preliminary analysis, a total of 7 compounds were identified and selected to be evaluated on the recombinant enzyme from S. typhimurium. The enzyme used in these assays has a Km,Ser = 1.07 ± 0.15 mM, a Km,AcCoA = 0.17 ± 0.04 mM, kcat = 3813 ± 169 min^−1 [37].
SAT from Salmonella enterica serovar Typhimurium was expressed as trxA fusion protein as previously described and was more than 95% pure based on SDS-PAGE analysis. The enzyme activity was measured by a spectrophotometric indirect assay that exploits the signal at 412 nm generated by 5,5’-Dithiobis(2-nitrobenzoic acid (Ellmn’s reagent) reduction by the reaction product coenzyme A [37]. A total of 5% DMSO was present in all the assays and was proven not to perturb enzyme activity (data not shown). The concentration of substrates was set equal to Km in order to improve the sensitivity of the assay for both competitive and uncompetitive mechanism of inhibition. The dependence of the relative reaction rate on the concentration of compounds was fitted to Equation (1) to calculate the IC50: vi/v0=1/1+[I]/IC50
The inhibition mechanism was determined by fitting the dependence of the initial reaction rate on the concentration of acetyl CoA (at fixed, 1 mM L-Ser concentration) in the presence of different concentrations of inhibitor ( 1/3IC50≥[inhibitor]≤3IC50 ) to the equation for competitive, uncompetitive and non-competitive mechanisms. The equation that fits a competitive mechanism (Equation (2)) was used to calculate Ki for compound 5: v0=Vmax·[acetyl−CoA]/[acetyl−CoA]+(Km·α) where α=1+([comp5]/Ki) .

For data set [2], the system named is M. tuberculosis. Details: method as in PMID 28749666. The note with it: cited from earlier work.
A short description of data set [3]: Chemical stability in DMSO solution by 1H NMR at different time points. Format: physicochemical. As to conditions: 5 mg in 500 μL DMSO-d6, room temperature. Here is the method: Upon noticing changes in the appearance of the DMSO solution over time at room temperature, we deemed it of interest to investigate the chemical stability of the compounds. Therefore, in order to evaluate it, ^1H NMR analysis at different time points (1 h, 2.5 h, and 20 h) of the DMSO solution (5 mg in 500 μL of DMSO-d6) was performed (Supporting Information). Since the time required to observe changes in the colour of the solution was dependent of the substituent at position R2 of series 22, to establish the effect of the substituent on the overall stability of the compound, analogue 22a (R2 = phenyl) which contains the non-substituted phenyl group, analogue 22b (R2 = 3,5-dichlorophenyl), substituted with an EWG and analogue 22d (R2 = 3,5-dimethylphenyl) substituted with an electron donating group (EDG) were selected to perform the chemical stability studies. The stability of the compounds increases in the following order: 22b (stability in DMSO < 2.5 h) < 22a (stability in DMSO < 20 h) < 22d (stability in DMSO < 7 days). Thus, it is possible to conclude that EWGs like the simple phenyl or the phenyl replaced with two chlorines produce fewer stable molecules. On the other hand, the phenyl replaced with EDGs contributes to the overall stability of the molecule. It is hypothesised that the mild oxidative properties of DMSO are able to interfere with the oxazole scaffold, which leads to the opening of the ring and then full degradation of the compound in study.

For data set [4], the system named is E. coli ATCC25922. The data set is described as follows: Minimal Inhibitory Concentration (MIC) assay. The data set is classed as cell-based. The note with it: Escherichia coli; E. coli ATCC25922, Mueller Hinton broth (MHB).
For data set [5], the system named is S. Typhimurium ATCC14028. The experiment in a line: Minimal Inhibitory Concentration (MIC) assay. The data set is classed as cell-based.
Data set [6] has as its system StOASS. More on the design: method as in PMID 26894308. As to conditions: cited from earlier work.
The mark [7] stands for this setting: Table 2, analogues of compound 5, * = estimated due to solubility issues, read-out: IC50.
[8] abbreviates: values as quoted in the SAR discussion text, read-out: IC50.
[9] abbreviates: Table 3, synthesised compounds, read-out: StSAT IC50.
[10] abbreviates: StSAT IC50, Table 3, synthesised compounds.

T1 sequence (P29847 whole entry, the tested form may be a part): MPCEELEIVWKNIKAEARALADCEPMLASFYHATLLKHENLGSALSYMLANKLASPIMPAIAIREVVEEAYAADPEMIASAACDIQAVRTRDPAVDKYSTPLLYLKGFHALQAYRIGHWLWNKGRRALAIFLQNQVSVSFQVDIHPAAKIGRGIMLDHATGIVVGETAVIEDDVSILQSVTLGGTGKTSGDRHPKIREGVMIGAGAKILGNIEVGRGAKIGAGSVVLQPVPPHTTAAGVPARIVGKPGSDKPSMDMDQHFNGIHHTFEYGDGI

In data set [1], `Cc1ccc(C(=O)O)c(N)n1` [Compound 1] gave an inhibition at 1000 µM of 19.4 ± 1%. In data set [1], `O=C(O)C1C2C=CC(C2)C1C(=O)O` (centres unmarked) [Compound 2] returned an inhibition at 1000 µM of 34.9 ± 6%. `CC1CN(C(=O)c2cc3ccccc3[nH]2)CC(C)N1` (centres unmarked) [Compound 3] yielded an inhibition at 1000 µM in data set [1] of 31.4 ± 5%. `CC(=O)NC(C(=O)O)C(=O)O` [Compound 4]: in data set [1], the inhibition at 1000 µM turned out to be 18.7 ± 6%. In the case of `Cc1ccc(Nc2nc(-c3cc(C(=O)O)no3)cs2)cc1` [Compound 5], the IC50 in data set [1] (Table 1, virtual screening hits, substrates equal to Km, read-out: IC50) came to 0.11 mM. The compound further had a Ki in data set [1] (competitive towards acetyl-CoA, fixed 1 mM L-Ser) of 64 ± 12 µM. Besides, the Mechanism entry in data set [1] (inhibition mechanism, varied acetyl CoA at fixed 1 mM L-Ser) is given as “competitive inhibitor; also recorded: Competitive with AcCoA”. The “activity toward M. tuberculosis” value in data set [2] is “inactive”. As to `CCn1c2ccccc2c2cc(CNC)ccc21` [Compound 6], in data set [1], the inhibition at 1000 µM amounted to 23.6%. Take `O=C(O)[C@H]1C[C@@H]1c1ccccc1` [Compound 7]: in data set [1], the inhibition at 1000 µM is above 40%. For the same compound, in data set [1] (virtual screening hit, value printed in mM (μM), read-out: IC50), the IC50 is above 2 mM. As for `Cc1ccc(Nc2nc(-c3ccncc3)cs2)cc1` [Compound 8], the IC50 in data set [1] (setting [7]) was above 0.4 mM.

With `COc1ccc(-c2cc(-c3csc(Nc4ccc(C)cc4)n3)on2)cc1` [Compound 9], in data set [1] (setting [7]), the IC50 was 0.012 ± 0.002 mM. As to `Cc1ccc(Nc2nc(-c3cc(C(=O)NC45CC6CC(CC(C6)C4)C5)no3)cs2)cc1` [Compound 10], in data set [1] (setting [7]), the IC50 was 0.009 ± 0.003 mM. Still for that read-out and setting: for `Cc1ccc(Nc2nc(-c3cc(C(N)=O)no3)cs2)cc1` [Compound 11] the value was 0.026 ± 0.004 mM.

Regarding `CNC(=O)c1cc(-c2csc(Nc3ccc(C)cc3)n2)on1` [Compound 12], the IC50 in data set [1] (setting [8]) was determined as 0.06 mM. In the case of `Cc1ccc(Nc2nc(-c3cc(C(=O)Nc4ccccc4)no3)cs2)cc1` [Compound 13], the IC50 in data set [1] (setting [7]) is 0.016 ± 0.003 mM; in data set [1] (setting [8]) it was 0.0163 mM. Turning to `CCOC(=O)c1cc(-c2csc(Nc3ccc(C)cc3)n2)on1` [Compound 14], the results for the IC50 in data set [1] (setting [7]) and in data set [1] (setting [8]) were around 0.01 mM and 0.01 mM, respectively. `CCOC(=O)c1cc(-c2csc(Nc3cc(Cl)cc(Cl)c3)n2)on1` [Compound 15]: the IC50 in data set [1] (setting [7]) was 0.018 ± 0.002 mM.

For the compound `Cc1ccc(Nc2nc(-c3cc(C(=O)O)nn3C)cs2)cc1` [Compound 16], in data set [1] (setting [7]), the IC50 is 0.184 ± 0.013 mM. As to `Cn1nc(C(=O)O)cc1-c1csc(Nc2cc(Cl)cc(Cl)c2)n1` [Compound 17], the IC50 in data set [1] (setting [7]) is 0.021 ± 0.005 mM. With `Cc1ccc(Nc2nc(-c3cc(C(=O)O)no3)co2)cc1` [Compound 18], in data set [1] (18 vs. 5, from IC50), the “improvement in the affinity compared to the 2-aminothiazole counterpart” value is given as above 40 fold. In addition, the IC50 in data set [1] (setting [8]) was determined as 0.0026 mM. In the case of `CCOC(=O)c1cc(-c2coc(Nc3ccc(C)cc3)n2)on1` [Compound 19], the values for the IC50 in data set [1] (setting [7]) and in data set [1] (setting [8]) were 0.007 ± 0.002 mM and 0.0073 mM, respectively. Turning to `O=C(O)c1cc(-c2csc(Nc3cc(Cl)cc(Cl)c3)n2)on1` [Compound 20], the half-maximal inhibitory concentration (IC50) in data set [1] (setting [7]) is 0.011 ± 0.001 mM. For the compound `CCOC(=O)c1cc(-c2coc(Nc3ccccc3)n2)on1` [Compound 21a, Ethyl 5-(2-(phenylamino)oxazol-4-yl)isoxazole-3-carboxylate], in data set [1] (setting [9]), the IC50 was found to be 0.00268 ± 0.00027 mM. Consider `CCOC(=O)c1cc(-c2coc(Nc3cc(Cl)cc(Cl)c3)n2)on1` [Compound 21b, Ethyl 5-(2-((3,5-dichlorophenyl)amino)oxazol-4-yl)isoxazole-3-carboxylate], for which, in data set [1] (setting [9]), the concentration for half-maximal inhibition (IC50) stood at 0.00252 ± 3e-05 mM.

Regarding `CCOC(=O)c1cc(-c2coc(Nc3ccc(F)cc3)n2)on1` [Compound 21c, Ethyl 5-(2-((4-fluorophenyl)amino)oxazol-4-yl)isoxazole-3-carboxylate], in data set [1] (setting [9]), the IC50 is 0.00304 ± 0.00037 mM. Consider `CCOC(=O)c1cc(-c2coc(Nc3ccncc3)n2)on1` [Compound 21e, Ethyl 5-(2-(pyridin-4-ylamino)oxazol-4-yl)isoxazole-3-carboxylate], for which the IC50 in data set [1] (setting [9]) came out at 0.00395 ± 0.00065 mM. Take `O=C(O)c1cc(-c2coc(Nc3ccccc3)n2)on1` [Compound 22a, 5-(2-(phenylamino)oxazol-4-yl)isoxazole-3-carboxylic acid]: the IC50 in data set [1] (setting [10]) was 0.00154 ± 0.00033 mM. Moreover, in data set [3], the “stability in DMSO” value was below 20 h. `O=C(O)c1cc(-c2coc(Nc3cc(Cl)cc(Cl)c3)n2)on1` [Compound 22b, 5-(2-((3,5-dichlorophenyl)amino)oxazol-4-yl)isoxazole-3-carboxylic acid]: the IC50 in data set [1] (setting [10]) came to 0.00803 ± 0.00018 mM. Moreover, the “stability in DMSO” value in data set [3] is below 2.5 h. In the case of `O=C(O)c1cc(-c2coc(Nc3ccc(F)cc3)n2)on1` [Compound 22c, 5-(2-((4-fluorophenyl)amino)oxazol-4-yl)isoxazole-3-carboxylic acid], the IC50 in data set [1] (setting [9]) amounted to 0.00251 ± 0.00034 mM. As to `Cc1cc(C)cc(Nc2nc(-c3cc(C(=O)O)no3)co2)c1` [Compound 22d, 5-(2-((3,5-dimethylphenyl)amino)oxazol-4-yl)isoxazole-3-carboxylic acid], in data set [1] (setting [9]), the IC50 is 0.00424 ± 0.00011 mM. Moreover, the MIC was above 128 µM in data set [4]; above 128 µM in data set [5] (S. Typhimurium ATCC14028, M9 medium deprived of cysteine); above 128 µM in data set [5] (Salmonella enterica, S. Typhimurium ATCC14028, Mueller Hinton broth (MHB)). In addition, the “stability in DMSO” value in data set [3] is below 170 h.

Regarding `O=C(O)c1cc(-c2coc(Nc3ccncc3)n2)on1` [Compound 22e, 5-(2-(pyridin-4-ylamino)oxazol-4-yl)isoxazole-3-carboxylic acid], the IC50 in data set [1] (setting [9]) stood at 0.012 ± 0.00125 mM.

As for `Cc1ccc(CC2(C(=O)O)CC2c2ccccc2)cc1` (centres unmarked) [UPAR415], in data set [6], the “mechanism of OASS inhibition” value was “competitive inhibitor”.
